Drawing on paper PMC6207720, “Identification and antitumor activity of a novel inhibitor of the NIMA-related kinase NEK6” (Scientific Reports, 2018), this text covers inhibition and IC50 for one compound.

For orientation: inhibition means the percentage by which the read-out fell short of the control. The term IC50 denotes the concentration that inhibits the measured activity by half.

The target of assay [1] is T1, NEK1 (Homo sapiens, UniProt Q96PY6).
T1 sequence (Q96PY6 1-1258): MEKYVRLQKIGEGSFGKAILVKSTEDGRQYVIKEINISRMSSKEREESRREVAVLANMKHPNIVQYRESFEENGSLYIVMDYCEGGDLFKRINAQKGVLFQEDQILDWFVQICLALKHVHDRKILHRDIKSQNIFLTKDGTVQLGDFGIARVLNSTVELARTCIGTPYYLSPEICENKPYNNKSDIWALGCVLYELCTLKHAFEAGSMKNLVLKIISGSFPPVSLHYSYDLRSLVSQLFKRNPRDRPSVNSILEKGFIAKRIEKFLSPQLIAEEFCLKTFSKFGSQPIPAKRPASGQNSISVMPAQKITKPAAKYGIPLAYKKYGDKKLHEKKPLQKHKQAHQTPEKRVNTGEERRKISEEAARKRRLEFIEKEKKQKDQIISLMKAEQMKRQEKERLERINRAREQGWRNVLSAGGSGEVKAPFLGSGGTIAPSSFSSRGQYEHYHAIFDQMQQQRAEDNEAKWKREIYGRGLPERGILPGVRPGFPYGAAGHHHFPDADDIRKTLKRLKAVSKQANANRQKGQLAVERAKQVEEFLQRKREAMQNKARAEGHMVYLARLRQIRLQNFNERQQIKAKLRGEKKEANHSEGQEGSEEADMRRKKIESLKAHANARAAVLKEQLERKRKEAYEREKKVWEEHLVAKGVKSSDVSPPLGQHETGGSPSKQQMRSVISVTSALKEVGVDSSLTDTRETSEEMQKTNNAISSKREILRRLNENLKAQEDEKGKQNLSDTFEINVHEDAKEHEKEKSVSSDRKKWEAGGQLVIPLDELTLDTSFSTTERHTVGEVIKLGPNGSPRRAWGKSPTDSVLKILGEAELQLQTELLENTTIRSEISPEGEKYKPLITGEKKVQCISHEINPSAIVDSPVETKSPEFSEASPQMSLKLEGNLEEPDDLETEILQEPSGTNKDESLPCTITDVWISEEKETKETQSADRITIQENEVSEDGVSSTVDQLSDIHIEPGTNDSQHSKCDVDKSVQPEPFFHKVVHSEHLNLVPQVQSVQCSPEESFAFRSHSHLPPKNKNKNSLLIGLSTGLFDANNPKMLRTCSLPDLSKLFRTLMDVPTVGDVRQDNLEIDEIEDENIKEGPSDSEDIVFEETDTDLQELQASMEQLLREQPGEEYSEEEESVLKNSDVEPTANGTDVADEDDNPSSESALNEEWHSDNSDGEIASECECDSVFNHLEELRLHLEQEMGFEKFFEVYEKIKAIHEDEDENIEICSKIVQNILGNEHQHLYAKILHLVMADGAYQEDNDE
The assay is described as follows: Off-chip Mobility Shift Assay (MSA) profiling, NEK1. It counts as biochemical. To be noted: ATP approximating Km. The protocol: (§1) Therefore, we decided to evaluate the selectivity of compound 8 against a panel of NEK kinases at 10 µM, using the technique of Off-chip Mobility shift assay. This concentration was chosen according to the guidelines proposed by Knight and Shokat, since the probability of off-target effects increases dramatically above 10 µM[36]. Furthermore, ATP concentration was set to approximate the Km,ATP for each kinase, so that the resulting selectivity profile directly reflects the intrinsic affinities of the inhibitor[37]. […] A major consequence of this substitution may be the redistribution of surface charges at the flexible activation loop resulting in an altered electrostatic potential and ability of NEK6 kinase to interact with other molecules.
(§2) The inhibitory activity of compounds 8 and 21 on NEK6 was also verified with MSA technique (Off-chip Mobility shift assay) (CARNA Biosciences Study ID: CBS170097, CARNA Biosciences, Kobe). […] PKR Inhibitor was used as positive control. For profiling study against NEK kinases (i.e. NEK1, NEK2, NEK6, NEK7, NEK9) (CARNA Biosciences Study ID: CBS170098), 8 was tested at 10 μM and ATP concentration approximating Km for each kinase. Assay condition for kinases are available on “Kinase profiling book” downloading by www.carnabio.com (https://www.carnabio.com/output/pdf/ProfilingProfilingBook_en.pdf).

Assay [2] addresses T2, NEK2 (Homo sapiens, UniProt P51955).
T2 sequence (P51955 1-445): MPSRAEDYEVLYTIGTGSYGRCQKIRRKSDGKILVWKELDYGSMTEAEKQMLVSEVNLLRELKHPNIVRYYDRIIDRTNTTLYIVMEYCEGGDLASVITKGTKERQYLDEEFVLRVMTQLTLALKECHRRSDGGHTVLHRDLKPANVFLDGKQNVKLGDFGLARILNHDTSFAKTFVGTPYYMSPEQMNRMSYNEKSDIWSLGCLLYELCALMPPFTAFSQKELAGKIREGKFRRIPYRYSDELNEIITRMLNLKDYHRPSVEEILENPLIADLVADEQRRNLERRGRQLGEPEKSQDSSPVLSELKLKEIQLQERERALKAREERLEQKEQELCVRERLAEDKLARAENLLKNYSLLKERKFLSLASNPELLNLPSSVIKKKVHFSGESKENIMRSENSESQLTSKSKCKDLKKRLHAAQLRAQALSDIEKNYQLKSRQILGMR
The assay is described as follows: Off-chip Mobility Shift Assay (MSA) profiling, NEK2. To be noted: ATP approximating Km. It counts as biochemical. The protocol: as §1, §2

Assay [3] has as its system PEO1 (ovary). The assay is described as follows: Cell-based cytotoxicity assay (ATPlite), PEO1. Details: species or system human. To be noted: Homo sapiens; PEO1, 72 h, ATPlite; NA = not active (IC50 greater than 100 µM); read-out: IC50 Values (µM ± SEM). An excerpt:
The following human carcinoma cell lines were used for the study: MDA-MB-231 and MCF-7 (breast cancer; ATCC, Sesto San Giovanni, MI), PEO1 and COV318 (ovarian cancer; ECACC, Salisbury, UK and ATCC), HCT-15 and SW948 (colon cancer; Public Health England, Salisbury, UK and ATCC), NCI-H1975 and NCI-H1299, (lung cancer; ATCC). Cells were routinely tested free of mycoplasma (MycoAlert mycoplasma detection kit, LONZA, Rockland, ME, USA) and validated by STR (Short Tandem Repeat) DNA profiling (BMR Genomics srl, PD). Cells were grown following supplier indication, in a fully humidified atmosphere of 5% CO2/95% air. All the reagents were purchased from Sigma-Aldrich (St. Louis, MO), if not otherwise specified.
On the technique in general: Cellular ATP, detected with luciferase, serves as a proxy for viable cell number.

Consider `CC1=C(C#N)C(O)=NC(=O)/C1=C\c1ccc(-c2ccccc2)o1` [Compound 8, (5Z)-2-hydroxy-4-methyl-6-oxo-5-[(5-phenylfuran-2-yl)methylidene]-5,6-dihydropyridine-3-carbonitrile], for which the inhibition at 10 µM was 47% in assay [1] and at most 0% in assay [2]. Further, the IC50 in assay [3] was 44 ± 6.5 µM.
